# pIC50: −log10 of the molar value.
# Tests used:
# Format in all cases: biochemical
# [1] = target: T1, B-Raf (Homo sapiens, UniProt P15056); assay: AlphaScreen kinase assay, B-Raf; conditions: read-out: IC50, activity toward kinase B-Raf
# T1 construct: purchased Upstate Biotechnology
# [2] = target: T2, Fak (Homo sapiens, UniProt Q05397); assay: AlphaScreen kinase assay, Fak; conditions: read-out: IC50, activity toward kinase Fak
# T2 construct: P1358.pFastBacHtb FAK S411-Q686-X; His6 with pFastBacHTb leader (TEV site) (N); made in house; host or cells: Sf9 (baculovirus)
# [3] = target: T3, Yes (Homo sapiens, UniProt P07947); assay: Z'-Lyte FRET kinase assay (Invitrogen), Yes; conditions: read-out: IC50, activity toward kinase Yes
# T3 construct: purchased Invitrogen (Carlsbad, Calif.), screening service
# From the text: The effect of potential modulators of kinase activity can be measured in a variety of different assays known in the art. For example, direct radiometric, indirect FRET or AlphaScreen assays may be used to assess the level of phosphorylation of a substrate in the presence of test compounds in order to determine the inhibitory affect of the compound on the kinase. Invitrogen (Carlsbad, Calif.) uses a FRET based assay for Btk, EGFR, EphB2, Flt3, lrak4, Kdr, MAP2K1, MAPKAPK2, PDGFRB, PKC theta, Stk6 and Yes. For these assays, compounds of the invention were screened by Invitrogen using Z′-Lyte™ kinase assay.
# Briefly, the Invitrogen kinase assay involves use of a specific peptide substrate optimized for each kinase, containing a fluorophore at each end that make up the FRET pair. The peptide sensitivity to proteolytic cleavage depends on phosphorylation of the peptide. Non-phosphorylated peptide is cleaved by a protease while peptide phosphorylated by the kinase is not cleaved. Cleavage of the peptide disrupts the FRET between the donor (coumarin) and acceptor (fluorescein) fluorophores, resulting in an increase in the ratio of donor emission to acceptor emission. The emission ratio of coumarin to fluorescein is used to assess the reaction progress. The extent of phosphorylation is determined from the emission ratio, which is low when the kinase is active (phosphorylated peptide is not cleaved, FRET pair connected) or higher for inhibited kinase (non-phosphorylated peptide is cleaved, FRET pair separated). Thus, the assay involves a kinase reaction in the presence of varying concentrations of a given compound, a development reaction with site specific protease, and detection of the fluorescent emission ratio of coumarin and fluorscein. […] Reaction conditions for each kinase are determined to provide optimal reaction times, incubation temperature, kinase and ATP concentrations. Test samples are made up in 1× kinase buffer (50 mM HEPES pH 7.5, 50 mM MgCl2, 5 mM EGTA, 0.05% BRIJ-35) and compound at desired concentration prepared in DMSO such that the final DMSO is 1%. […] Typically, assay plates are prepared to 10 μl final volume per sample, adding 2.5 μl of compound at 4× the desired concentration in 4% DMSO (serial dilution of compound provides concentration curve), 5 μl of the desired kinase mixed with Z′-LYTE™ peptide substrate (2× in 2× kinase buffer, final peptide at 2 μM), and 2.5 μl of 4×ATP solution. All kinase except for MAP2K1 were at 10 μM ATP in the kinase reaction, while MAP2K1 was at 100 μM. Samples are mixed and the kinase reaction is incubated 1 hour at room temperature, after which 5 μl of development solution is added and mixed. After incubation for another 1 hour at room temperature, 5 μl of stop reagent is added to each sample and mixed. The fluorescence signals are measured to determine the emission ratio.
# [4] = target: T4, Zap70 (Homo sapiens, UniProt P43403); assay: AlphaScreen kinase assay, Zap70; conditions: read-out: IC50, activity toward kinase Zap70
# T4 construct: P1868.pFastBac1 ZAP70 D327-G606 HIS, WT; His7 (HHHHHHH) (C); made in house
# T4 sequence (P43403 with tags, fused parts or gaps): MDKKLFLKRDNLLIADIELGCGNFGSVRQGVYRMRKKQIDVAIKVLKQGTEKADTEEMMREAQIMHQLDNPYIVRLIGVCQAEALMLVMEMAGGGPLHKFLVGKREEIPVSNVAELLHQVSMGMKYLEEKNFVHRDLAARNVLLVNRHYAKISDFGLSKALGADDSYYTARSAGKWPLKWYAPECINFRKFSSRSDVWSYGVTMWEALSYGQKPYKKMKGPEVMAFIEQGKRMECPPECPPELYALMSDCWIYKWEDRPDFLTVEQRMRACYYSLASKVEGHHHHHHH
# From the text: AlphaScreen assay was used to screen additional kinases. The assay is similarly dependent on the phosphorylation of a peptide substrate. In this assay, an antibody that recognizes phosphorylated substrate is bound to an acceptor bead. The peptide substrate is attached to biotin, which binds to a donor head that contains streptavidin. Thus phosphorylated substrate is bound by antibody and streptavidin, bringing the donor and acceptor heads into close proximity when kinase is not inhibited. The donor produces singlet oxygen which results in emission from the acceptor when they are in close proximity. Conversely, when kinase is inhibited, the donor and acceptor beads are not associated and the emission from the acceptor is reduced.
# AlphaScreen assays were done using compounds dissolved in DMSO to a concentration of 20 mM. The compounds were diluted accordingly to the desired final concentrations in each sample well, using 1:3 serial dilution for a total of 8 concentration points.
# [5] = target: MAP4K4 (Homo sapiens, UniProt O95819); assay: AlphaScreen kinase assay, MAP4K4; conditions: read-out: IC50, activity toward kinase MAP4K4
# [6] = target: T5, Flt1 (Homo sapiens, UniProt P17948); assay: AlphaScreen kinase assay, Flt1; conditions: read-out: IC50, activity toward kinase Flt1
# T5 construct: P1826.pETN6 BI-PTP FLT1 M799-D1165-X WT; His6 (N); made in house; host or cells: E. coli (PTP1B co-expressed)
# T5 sequence (P17948 with tags, fused parts or gaps): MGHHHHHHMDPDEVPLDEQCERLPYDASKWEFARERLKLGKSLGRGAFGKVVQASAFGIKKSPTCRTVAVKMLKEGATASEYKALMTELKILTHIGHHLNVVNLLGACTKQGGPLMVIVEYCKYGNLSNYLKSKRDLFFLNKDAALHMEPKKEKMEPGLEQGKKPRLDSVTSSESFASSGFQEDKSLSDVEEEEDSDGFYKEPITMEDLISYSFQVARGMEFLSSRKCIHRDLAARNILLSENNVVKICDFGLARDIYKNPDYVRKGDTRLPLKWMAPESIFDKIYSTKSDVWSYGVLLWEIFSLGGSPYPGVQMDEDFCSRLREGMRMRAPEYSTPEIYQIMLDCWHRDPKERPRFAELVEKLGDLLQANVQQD
# [7] = target: T6, FGFR1 (Homo sapiens, UniProt P11362, C488A/C584S); assay: AlphaScreen kinase assay, FGFR1; conditions: read-out: IC50, activity toward kinase FGFR
# T6 construct: P1351.pET N6 BI-PTP FGFR A458-E765-X C488A, C584S; made in house; host or cells: E. coli (PTP1B co-expressed)
# [8] = target: T7, B-Raf V600E (Homo sapiens, UniProt P15056, V600E); assay: AlphaScreen kinase assay, B-Raf V600E; conditions: read-out: IC50, activity toward kinase B-Raf V600E
# T7 construct: P4254. pFastBacBD-CDC37 BRAF D437-K722-X, V600E; His6 with pFastBac HT leader (TEV site) (N); made in house; host or cells: Sf9 (baculovirus; chaperone CDC37 co-expressed)
# [9] = target: T8, Ret (Homo sapiens, UniProt P07949); assay: AlphaScreen kinase assay, Ret; conditions: read-out: IC50, activity toward kinase Ret
# T8 construct: P1378.pET-SF BI-PTP RET H661-R1012 HIS; made in house
# T8 sequence (P07949 with tags, fused parts or gaps): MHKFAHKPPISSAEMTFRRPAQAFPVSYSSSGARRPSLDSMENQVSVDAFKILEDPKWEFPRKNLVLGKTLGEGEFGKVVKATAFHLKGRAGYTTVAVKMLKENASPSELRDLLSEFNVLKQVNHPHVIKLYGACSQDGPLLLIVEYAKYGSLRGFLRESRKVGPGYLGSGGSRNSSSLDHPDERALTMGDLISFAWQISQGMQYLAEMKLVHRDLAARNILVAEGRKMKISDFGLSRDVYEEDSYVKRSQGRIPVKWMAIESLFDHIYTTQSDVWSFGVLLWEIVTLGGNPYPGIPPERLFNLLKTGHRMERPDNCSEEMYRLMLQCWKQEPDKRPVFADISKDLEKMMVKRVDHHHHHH
# [10] = target: T9, Kit (Homo sapiens, UniProt P10721); assay: AlphaScreen kinase assay, Kit; conditions: read-out: IC50, activity toward kinase Kit
# T9 construct: P1332.N6 BI PTP KIT M552-K948-X COD; His6 (N); made in house; host or cells: E. coli (PTP1B co-expressed)
# [11] = target: T10, Stk6 (Homo sapiens, UniProt O14965); assay: Z'-Lyte FRET kinase assay (Invitrogen), Stk6; conditions: read-out: IC50, activity toward kinase Stk6
# T10 construct: purchased Invitrogen (Carlsbad, Calif.), screening service
# T10 sequence (O14965 1-403): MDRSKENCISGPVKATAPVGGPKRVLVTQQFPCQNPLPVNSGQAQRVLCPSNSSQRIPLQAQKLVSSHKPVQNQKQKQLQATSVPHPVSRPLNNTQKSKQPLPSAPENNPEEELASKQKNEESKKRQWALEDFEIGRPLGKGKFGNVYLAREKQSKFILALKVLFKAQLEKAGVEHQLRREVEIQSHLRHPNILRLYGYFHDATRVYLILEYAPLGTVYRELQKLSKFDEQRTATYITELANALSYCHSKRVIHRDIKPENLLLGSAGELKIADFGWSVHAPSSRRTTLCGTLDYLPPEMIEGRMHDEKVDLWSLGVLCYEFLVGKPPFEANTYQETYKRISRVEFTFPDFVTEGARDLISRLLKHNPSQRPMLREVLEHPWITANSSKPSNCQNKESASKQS
# [12] = target: T11, Fms (Homo sapiens, UniProt P07333); assay: AlphaScreen kinase assay, Fms; conditions: read-out: IC50, activity toward kinase Fms
# T11 construct: purchased Upstate Biotechnology
# T11 sequence (P07333 20-972): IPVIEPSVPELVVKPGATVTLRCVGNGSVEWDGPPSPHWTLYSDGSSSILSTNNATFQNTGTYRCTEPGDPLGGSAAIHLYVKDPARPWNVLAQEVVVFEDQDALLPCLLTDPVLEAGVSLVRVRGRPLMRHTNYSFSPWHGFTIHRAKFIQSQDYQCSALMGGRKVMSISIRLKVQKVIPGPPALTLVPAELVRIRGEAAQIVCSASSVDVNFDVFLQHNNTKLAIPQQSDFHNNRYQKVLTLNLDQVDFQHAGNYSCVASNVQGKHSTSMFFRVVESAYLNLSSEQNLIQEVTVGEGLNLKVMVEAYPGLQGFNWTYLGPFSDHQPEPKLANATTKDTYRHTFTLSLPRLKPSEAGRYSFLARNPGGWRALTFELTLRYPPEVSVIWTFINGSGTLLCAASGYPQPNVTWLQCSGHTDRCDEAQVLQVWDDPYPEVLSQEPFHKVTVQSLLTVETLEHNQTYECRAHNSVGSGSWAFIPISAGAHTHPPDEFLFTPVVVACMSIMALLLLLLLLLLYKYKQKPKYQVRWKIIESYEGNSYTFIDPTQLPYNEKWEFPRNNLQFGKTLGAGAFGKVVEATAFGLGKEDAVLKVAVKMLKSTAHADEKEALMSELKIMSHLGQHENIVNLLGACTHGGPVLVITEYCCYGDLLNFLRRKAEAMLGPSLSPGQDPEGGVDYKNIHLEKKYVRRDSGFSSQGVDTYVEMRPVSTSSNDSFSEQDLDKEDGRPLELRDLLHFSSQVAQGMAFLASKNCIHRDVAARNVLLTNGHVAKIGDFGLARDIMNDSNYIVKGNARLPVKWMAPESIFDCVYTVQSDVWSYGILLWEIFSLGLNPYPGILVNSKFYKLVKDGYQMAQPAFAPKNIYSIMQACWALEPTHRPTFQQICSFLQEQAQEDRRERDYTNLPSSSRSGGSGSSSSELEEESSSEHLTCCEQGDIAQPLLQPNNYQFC
# T9 sequence (P10721 with tags, fused parts or gaps): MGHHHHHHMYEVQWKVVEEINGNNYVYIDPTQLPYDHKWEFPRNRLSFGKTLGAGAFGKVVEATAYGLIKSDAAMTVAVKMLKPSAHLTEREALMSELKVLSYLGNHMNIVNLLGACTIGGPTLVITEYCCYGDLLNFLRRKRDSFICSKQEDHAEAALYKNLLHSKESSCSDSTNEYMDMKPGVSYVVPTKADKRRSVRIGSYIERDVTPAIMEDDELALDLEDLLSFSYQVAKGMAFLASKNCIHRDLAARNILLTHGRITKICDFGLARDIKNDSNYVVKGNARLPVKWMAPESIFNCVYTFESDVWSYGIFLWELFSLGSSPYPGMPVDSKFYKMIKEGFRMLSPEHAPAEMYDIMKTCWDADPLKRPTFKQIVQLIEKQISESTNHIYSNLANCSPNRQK
# MAP4K4, sequence (O95819 whole entry): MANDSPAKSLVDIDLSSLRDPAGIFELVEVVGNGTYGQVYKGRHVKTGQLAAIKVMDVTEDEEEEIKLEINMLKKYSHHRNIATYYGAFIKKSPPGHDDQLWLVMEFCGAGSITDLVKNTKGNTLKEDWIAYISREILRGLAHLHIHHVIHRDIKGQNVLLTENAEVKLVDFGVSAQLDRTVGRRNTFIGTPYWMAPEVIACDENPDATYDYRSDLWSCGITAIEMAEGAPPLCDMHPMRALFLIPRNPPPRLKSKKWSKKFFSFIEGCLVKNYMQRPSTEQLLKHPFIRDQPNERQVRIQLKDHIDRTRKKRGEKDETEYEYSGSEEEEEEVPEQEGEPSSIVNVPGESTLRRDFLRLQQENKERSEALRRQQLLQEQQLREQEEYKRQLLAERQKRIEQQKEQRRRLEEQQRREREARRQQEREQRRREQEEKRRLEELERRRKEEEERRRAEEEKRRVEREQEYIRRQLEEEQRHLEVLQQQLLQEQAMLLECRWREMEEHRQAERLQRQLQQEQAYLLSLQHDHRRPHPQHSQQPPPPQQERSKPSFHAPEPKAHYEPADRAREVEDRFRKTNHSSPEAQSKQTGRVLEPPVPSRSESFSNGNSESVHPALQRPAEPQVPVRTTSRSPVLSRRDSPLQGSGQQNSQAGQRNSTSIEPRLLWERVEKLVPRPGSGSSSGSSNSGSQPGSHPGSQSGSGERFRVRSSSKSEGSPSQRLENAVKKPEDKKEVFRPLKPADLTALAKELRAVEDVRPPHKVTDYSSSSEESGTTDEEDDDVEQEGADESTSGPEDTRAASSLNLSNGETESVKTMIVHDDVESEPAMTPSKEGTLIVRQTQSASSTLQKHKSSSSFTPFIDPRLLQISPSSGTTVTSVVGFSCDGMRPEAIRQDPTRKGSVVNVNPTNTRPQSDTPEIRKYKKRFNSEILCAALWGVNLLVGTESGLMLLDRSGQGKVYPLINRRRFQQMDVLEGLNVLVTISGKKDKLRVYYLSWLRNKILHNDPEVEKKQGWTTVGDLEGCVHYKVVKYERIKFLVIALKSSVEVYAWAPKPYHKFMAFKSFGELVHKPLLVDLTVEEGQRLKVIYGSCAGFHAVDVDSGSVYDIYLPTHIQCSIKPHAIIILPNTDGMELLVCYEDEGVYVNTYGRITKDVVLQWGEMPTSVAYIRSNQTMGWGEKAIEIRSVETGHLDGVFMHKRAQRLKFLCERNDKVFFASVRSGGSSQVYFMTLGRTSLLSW
# T6 sequence (P11362 458-765 C488A/C584S): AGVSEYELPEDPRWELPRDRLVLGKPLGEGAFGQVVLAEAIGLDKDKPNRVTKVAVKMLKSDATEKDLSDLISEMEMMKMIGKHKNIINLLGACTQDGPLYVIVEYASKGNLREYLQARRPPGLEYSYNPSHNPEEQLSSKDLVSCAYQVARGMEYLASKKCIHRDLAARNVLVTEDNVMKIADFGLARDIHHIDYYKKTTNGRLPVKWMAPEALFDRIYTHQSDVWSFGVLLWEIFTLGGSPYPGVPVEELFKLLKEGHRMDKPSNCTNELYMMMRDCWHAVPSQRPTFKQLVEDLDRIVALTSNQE
# T7 sequence (P15056 with tags, fused parts or gaps V600E): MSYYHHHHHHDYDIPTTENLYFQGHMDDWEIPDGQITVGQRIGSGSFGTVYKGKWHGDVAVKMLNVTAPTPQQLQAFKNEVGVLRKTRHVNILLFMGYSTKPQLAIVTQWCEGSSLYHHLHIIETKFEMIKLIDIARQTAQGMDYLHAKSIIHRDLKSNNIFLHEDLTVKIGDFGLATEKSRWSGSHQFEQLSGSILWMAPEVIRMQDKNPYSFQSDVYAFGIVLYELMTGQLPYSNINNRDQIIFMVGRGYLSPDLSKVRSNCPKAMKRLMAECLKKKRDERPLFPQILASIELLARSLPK
# T2 sequence (Q05397 411-686): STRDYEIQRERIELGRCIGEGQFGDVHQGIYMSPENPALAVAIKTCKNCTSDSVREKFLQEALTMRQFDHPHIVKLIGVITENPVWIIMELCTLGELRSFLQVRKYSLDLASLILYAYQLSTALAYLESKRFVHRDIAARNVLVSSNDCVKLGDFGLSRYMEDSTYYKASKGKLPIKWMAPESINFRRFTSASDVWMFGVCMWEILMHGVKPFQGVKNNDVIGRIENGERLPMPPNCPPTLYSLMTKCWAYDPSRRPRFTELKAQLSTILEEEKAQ
# T1 sequence (P15056 whole entry): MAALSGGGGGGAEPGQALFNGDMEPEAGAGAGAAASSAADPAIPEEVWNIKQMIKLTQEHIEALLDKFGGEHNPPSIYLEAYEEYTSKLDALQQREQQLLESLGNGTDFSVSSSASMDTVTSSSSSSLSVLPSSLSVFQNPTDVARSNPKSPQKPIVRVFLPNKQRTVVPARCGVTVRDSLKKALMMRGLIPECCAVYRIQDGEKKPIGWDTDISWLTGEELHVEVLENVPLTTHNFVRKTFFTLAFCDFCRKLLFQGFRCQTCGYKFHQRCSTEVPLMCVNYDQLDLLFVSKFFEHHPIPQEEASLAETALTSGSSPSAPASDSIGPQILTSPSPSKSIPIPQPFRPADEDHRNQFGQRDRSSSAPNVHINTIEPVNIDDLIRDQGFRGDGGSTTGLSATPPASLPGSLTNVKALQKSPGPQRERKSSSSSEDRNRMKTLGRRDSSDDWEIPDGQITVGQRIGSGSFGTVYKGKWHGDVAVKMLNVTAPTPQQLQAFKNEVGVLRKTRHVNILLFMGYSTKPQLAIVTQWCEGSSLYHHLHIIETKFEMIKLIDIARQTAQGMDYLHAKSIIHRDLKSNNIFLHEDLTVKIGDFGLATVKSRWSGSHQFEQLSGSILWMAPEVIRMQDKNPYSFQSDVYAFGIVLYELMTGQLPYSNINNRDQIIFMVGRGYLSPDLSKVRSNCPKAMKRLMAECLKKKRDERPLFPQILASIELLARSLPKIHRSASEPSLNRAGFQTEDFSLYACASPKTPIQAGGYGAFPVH
# T3 sequence (P07947 whole entry): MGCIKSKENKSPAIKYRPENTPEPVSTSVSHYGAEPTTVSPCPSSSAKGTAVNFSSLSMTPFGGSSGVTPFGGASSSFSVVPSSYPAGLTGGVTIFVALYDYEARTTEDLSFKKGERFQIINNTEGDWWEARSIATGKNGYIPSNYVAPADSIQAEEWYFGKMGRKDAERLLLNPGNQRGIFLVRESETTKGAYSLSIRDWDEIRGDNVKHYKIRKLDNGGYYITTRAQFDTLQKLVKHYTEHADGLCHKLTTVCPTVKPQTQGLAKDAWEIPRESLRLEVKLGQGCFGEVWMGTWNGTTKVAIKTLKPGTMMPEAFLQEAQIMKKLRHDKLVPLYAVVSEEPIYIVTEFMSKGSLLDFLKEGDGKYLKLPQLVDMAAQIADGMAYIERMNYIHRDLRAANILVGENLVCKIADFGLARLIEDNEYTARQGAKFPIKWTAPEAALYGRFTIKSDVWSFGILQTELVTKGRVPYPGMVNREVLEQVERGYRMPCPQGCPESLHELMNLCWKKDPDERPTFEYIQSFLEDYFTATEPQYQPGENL
compound,measurement,setting,value
c1ccc(Oc2ccc(Cc3c[nH]c4ncccc34)cc2)cc1 [Compound P-0310],pIC50,[1],≥ 5.00
same,pIC50,[2],≥ 5.00
same,pIC50,[3],≥ 5.00
same,pIC50,[4],≥ 5.00
COc1ccc(-c2c(C)[nH]c3ncccc23)cc1OC [Compound P-0862],pIC50,[5],≥ 5.00
c1ccc(Cc2c[nH]c3ncccc23)cc1 [Compound P-0256],pIC50,[5],≥ 5.00
COc1ccc(-c2c[nH]c3ncccc23)c(OC)c1 [Compound P-0477],pIC50,[5],≥ 5.00
same,pIC50,[6],≥ 5.00
Clc1cccc(-c2c[nH]c3ncccc23)c1 [Compound P-0449],pIC50,[5],≥ 5.00
"O=C(O)/C=C/c1cccc(-c2cnc3[nH]cc(C(=O)c4cccc(OC(F)F)c4)c3c2)c1 [Compound P-1418, (E)-3-{3-[3-(3-Difluoromethoxy-benzoyl)-1H-pyrrolo[2,3-b]pyridin-5-yl]-phenyl}-acrylic acid]",pIC50,[7],≥ 5.00
same,pIC50,[5],≥ 5.00
same,pIC50,[6],≥ 5.00
same,pIC50,[8],≥ 5.00
Cc1[nH]c2ncccc2c1-c1ccncc1 [Compound P-0537],pIC50,[5],≥ 5.00
O=C(c1cccc(F)c1)c1c[nH]c2ncccc12 [Compound P-0367],pIC50,[5],≥ 5.00
same,pIC50,[9],≥ 5.00
same,pIC50,[10],≥ 5.00
NC(=O)c1ccc(-c2c(CN3CCOCC3)[nH]c3ncccc23)cc1 [Compound P-0695],pIC50,[5],≥ 5.00
Cc1[nH]c2ncccc2c1-c1ccccc1 [Compound P-0488],pIC50,[5],≥ 5.00
CCOc1ccccc1-c1c[nH]c2ncccc12 [Compound P-0527],pIC50,[5],≥ 5.00
c1cnc2ccc(Nc3ccnc4[nH]ccc34)cc2c1 [Compound P-1042],pIC50,[5],≥ 5.00
O=C(c1cccnc1)c1c[nH]c2ncccc12 [Compound P-0518],pIC50,[5],≥ 5.00
O=C(c1ccccc1)c1c[nH]c2ncccc12 [Compound P-0402],pIC50,[5],≥ 5.00
same,pIC50,[10],≥ 5.00
Fc1ccc(Cc2c[nH]c3ncccc23)cc1 [Compound P-0220],pIC50,[7],≥ 5.00
same,pIC50,[5],≥ 5.00
Cc1cc(C(=O)c2c[nH]c3ncccc23)n(C)n1 [Compound P-0357],pIC50,[5],≥ 5.00
COc1ccc(F)cc1Cc1c[nH]c2ncccc12 [Compound P-0348],pIC50,[4],≥ 5.00
same,pIC50,[11],≥ 5.00
O=S(=O)(NCc1c[nH]c2ncccc12)c1ccc(-c2cccc(CO)c2)cc1 [Compound P-0193],pIC50,[4],≥ 5.00
same,pIC50,[11],≥ 5.00
"COc1cc(OC)cc(C(=O)c2c[nH]c3ncc(-c4ccccc4)cc23)c1 [Compound P-1406, (3,5-Dimethoxy-phenyl)-(5-phenyl-1H-pyrrolo[2.3 b]pyridin-3-yl)-methanone]",pIC50,[7],≥ 5.00
same,pIC50,[5],≥ 5.00
same,pIC50,[12],≥ 5.00
same,pIC50,[6],≥ 5.00
same,pIC50,[10],≥ 5.00
"O=C(c1cc(Cl)cc(Cl)c1)c1c[nH]c2ncc(-c3cccnc3)cc12 [Compound P-1414, (3,5-Dichloro-phenyl)-(5-pyridin-3-yl-1H-pyrrolo[2,3-b]pyridin-3-yl)-methanone]",pIC50,[5],≥ 5.00
same,pIC50,[10],≥ 5.00
same,pIC50,[8],≥ 5.00
CN1CCN(Cc2ccc(C(=O)Nc3ccc(Cc4c[nH]c5ncccc45)cc3)cc2)CC1 [Compound P-0795],pIC50,[2],≥ 5.00
same,pIC50,[4],≥ 5.00
same,pIC50,[9],≥ 5.00
Cc1[nH]c2ncccc2c1-c1ccc(-c2ccccc2)cc1 [Compound P-0601],pIC50,[5],≥ 5.00
